Test results: PMC8631515 (Frontiers in Oncology, 2021)
Non-standard residues stand in square brackets, D forms with d. No end group written: not given here.

Tests used:
heart, liver and kidney = assay: H&E histology of major organs of tumor-bearing mice; assay type: in vivo, Balb/c mice; conditions: CT26-bearing mice, i.p. twice a week for two weeks, n = 7
[1] = Cleavage assay of PPA1-DOX in mouse serum; assay type: in vitro ADME; conditions: mouse serum pH 7.4, 37°C, 24 h, under nitrogen, 1 mg/mol (so in the source) in 2 mL; HPLC (HILIC), UV 254 nm
Description: (§1) To verify the acid sensitivity of hydrazone bond linking the PPA1 to DOX, a series of PPA1-DOX and DOX solutions with different concentrations were configured in the sodium phosphate buffer (pH= 9.0), respectively. A 5 μL aliquot of each sample was injected onto an HPLC system with ultraviolet detector wavelength to determine 254 nm absorbance values, using hydrophilic interaction chromatography (HILIC) column separation (Waters, XBridge BEH HILIC XP Column, 2.1 mm, 50 mm, 2.5 µm). Through simulating the linearity fitting from disposed concentrations and detected absorbance values, standard curves of PPA1-DOX and DOX were obtained, respectively.
(§2) Preparing two partials of PPA1-DOX (1 mg/mol) were dissolved into the 2 mL sodium phosphate buffer (pH = 5.0) and 2 mL mouse serum (pH = 7.4), respectively, and the vials were capped and kept 37°C under nitrogen with continuously slight oscillaation. Samples (20 μL) were spiked and analyzed by HPLC under the 254 nm absorbance value after incubating 0.5 h, 1 h, 2 h, 4 h, 12 h and 24 h. For evaluation of hydrazone bond cleavage data was considered the disappearance of the major peak related to the standard curves of PPA1-DOX and DOX.

[2] = Cleavage assay of PPA1-DOX in acidic sodium phosphate buffer; assay type: physicochemical; conditions: sodium phosphate buffer pH 5.0, 37°C, sampled 0.5-24 h, under nitrogen, 1 mg/mol (so in the source) in 2 mL; HPLC (HILIC), UV 254 nm
Description: as §1, §2

[3] = Body weight of CT26 tumor-bearing mice; conditions: i.p. twice a week for two weeks, DOX 5 mg/kg, 5-Fu 10 mg/kg, PPA1 15 mg/kg, PPA1-DOX 20 mg/kg, after day 7, n = 7
Excerpt: Six-week-old female Balb/c mice were inoculated subcutaneously with 5 × 10^6 CT26 cells in the left armpit. The mice were randomly divided into groups with 7 mice in each group after the tumor reached about 100 mm^3. The mice were housed in animal house of Shenzhen University. For the survival experiment, the mice were killed when the tumor reached about 1500 mm^3. The tumor size and body weight were monitored every day after the injection of the drugs. At the end of the experiment, the tumors and major organs (heart, liver, spleen, lung, and kidney) were collected for immunohistochemistry and/or histological tests. For the PPA1-DOX distribution experiment, the tumors and major organs were subsequently analyzed with an in vivo imaging system (IVIS Spectrum, PerkinElmer).
DOX at 5 mg/kg, 5-Fu at 10 mg/kg, PPA1 and RAN at 15mg/kg, PPA1-DOX and RAN-DOX at 20 mg/kg were injected intraperitoneally to mice twice a week for two weeks. […] For the PPA1-DOX distribution experiment, RhB-PPA1-DOX and RhB-RAN-DOX at 20mg/kg were injected into the tail vein of the mice.

CT26 tumor = assay: Antitumor activity in CT26-bearing mice; assay type: in vivo, Balb/c mice; conditions: i.p. twice a week for two weeks
[4] = system: intratumoral CD4+ and CD8+ T cells; assay: CD4/CD8 immunohistochemistry of tumor tissues; assay type: in vivo, Balb/c mice; conditions: CT26-bearing mice, compared with RNA-DOX-, DOX- or 5-FU-treated mice
Description: The tumor tissues were fixed in 4% paraformaldehyde, gradually dehydrated, embedded in paraffin, cut into 4um sections, and subjected for hematoxylin/eosin staining. For immuno-histochemical staining of CD4/CD8 positive cells, tissue sections processed through deparaffinage, rehydration and antigen plerosised, and endogenous peroxidase activity blockade, were incubated with mouse anti-human CD4(1:300, Proteintech, USA), mouse anti-human CD8(1:200, Proteintech, USA) at 4°C overnight, respectively. The secrions were then washed and incubated with a HRP-labeled secondary antibody at RT for 40 min. After color development through incubation with diaminobenzidine, the sections were counterstained with hematoxylin. The stained sections were observed and imaged under a light microscope.

[5] = target: Programmed death-ligand 1 (PD-L1), Tag1-PD-L1 (UniProt Q9NZQ7 19-238); assay: AlphaScreen or HTRF; Cisbio HTRF PD1/PD-L1 binding assay kit; Tag1-PD-L1 and Tag2-PD1 detected with anti-Tag1-Europium (donor) and anti-Tag2-XL665 (acceptor); peptide or conjugate varied as blocker; IC50 from a sigmoidal (Hill) fit; n = 3; conditions: both partners purified
Sequence of Programmed death-ligand 1 (PD-L1), Tag1-PD-L1 (Q9NZQ7 19-238): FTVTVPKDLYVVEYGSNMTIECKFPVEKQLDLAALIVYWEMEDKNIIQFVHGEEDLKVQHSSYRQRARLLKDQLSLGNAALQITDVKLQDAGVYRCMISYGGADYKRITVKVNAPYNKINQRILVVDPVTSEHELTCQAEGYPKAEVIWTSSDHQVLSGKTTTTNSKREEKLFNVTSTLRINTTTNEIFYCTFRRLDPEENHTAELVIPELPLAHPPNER

In the case of `O=c1[nH]cc(F)c(=O)[nH]1` [Compound 5-Fu], the “toxicity to major organs (H&E stained sections)” value (“toxicity to major organs” below) (heart, liver and kidney) is reported as “severe damages”.

For `COc1cccc2c1C(=O)c1c(O)c3c(c(O)c1C2=O)C[C@@](O)(C(=O)CO)C[C@@H]3O[C@H]1C[C@H](N)[C@H](O)[C@H](C)O1` [DOX, doxorubicin], the “toxicity to major organs” value (heart, liver and kidney) was “severe damages”.

For `COc1cccc2c1C(=O)c1c(O)c3c(c(O)c1C2=O)C[C@@](O)(C(CO)=NNC(=O)CCCc1cn(CC(=O)NCCCC[C@@H](NC(=O)[C@@H](Cc2ccccc2)NC(=O)[C@@H](Cc2c[nH]cn2)NC(=O)[C@@H](Cc2ccc(O)cc2)NC(=O)[C@@H](CCC(N)=O)NC(=O)[C@@H](CCCNC(=N)N)NC(=O)[C@@H](CC(=O)O)NC(=O)[C@H](NC(=O)[C@H]2CCCN2C(=O)[C@@H](CCCCN)NC(=O)[C@@H](CO)NC(=O)[C@@H](Cc2ccc(O)cc2)NC(=O)[C@H](N)CC(N)=O)[C@H](C)O)C(=O)O)nn1)C[C@@H]3O[C@H]1C[C@H](N)[C@H](O)[C@H](C)O1` [PPA1-DOX], the “stability of conjugate in mouse serum (HPLC peaks)” value [1] was “little change on peaks”, the “hydrazone cleavage in acidic environment” value [2] was “rapidly cleaved into PPA1 and DOX” and the body weight change [3] was “no remarkable body weight loss”. For the same molecule, the “toxicity to major organs” value (heart, liver and kidney) was “rather low toxicity”, the survival time (CT26 tumor; PPA1-DOX 20 mg/kg, superior to free PPA1 and RAN-DOX, mice killed at tumor about 1500 mm^3, n = 7) was “longer survival time” and the tumor growth (CT26 tumor; PPA1-DOX and RAN-DOX 20 mg/kg, n = 7) was “effective suppression of tumor growth”. The “infiltration of CD4+ and CD8+ T cells in tumors” value [4] was “obviously increased infiltration”.

In the case of `C[C@H](O)[C@@H](NC(=O)[C@H]1CCCN1C(=O)[C@@H](CCCCN)NC(=O)[C@@H](CO)NC(=O)[C@@H](Cc1ccc(O)cc1)NC(=O)[C@H](N)CC(N)=O)C(=O)N[C@H](CC(=O)O)C(=O)N[C@H](CCCNC(=N)N)C(=O)N[C@H](CCC(N)=O)C(=O)N[C@H](Cc1ccc(O)cc1)C(=O)N[C@H](Cc1c[nH]cn1)C(=O)N[C@H](Cc1ccccc1)C(=O)N[C@H](CCCCN)C(=O)O` [PPA1], the “toxicity to major organs” value (heart, liver and kidney) is reported as “rather low toxicity”.

B1: PPA1, proteolysis resistant PD-L1-targeted peptide (peptide)
peptide: NYSKPTDRQYHFK
modifications: all residues in D-form
notes: D-peptide, printed in lower case (nyskptdrqyhfk); also called free PPA1; PD-L1 targeting polypeptide; source: synthetic peptide, bought: Chinapeptides Co., Ltd
Molecule B1 has an IC50 [5] of 174 nM.

B2: PPA1-DOX, conjugate of PPA1 with doxorubicin through an acid-sensitive hydrazone linker (peptide)
peptide: [dN][dY][dS][dK][dP][dT][dD][dR][dQ][dY][dH][dF]K
modifications: not fully specified (residue 13); also: triazole from click, hydrazone to doxorubicin
notes: D-peptide, printed as nyskptdrqyhf-Lys(N3); the last lysine carries the azide used for the conjugation to DOX; also called compound 5; PPA-DOX; source: synthetic: azide end-functionalized PPA1 peptide joined to hydrazine-DOX by click chemistry, purified by HPLC
For B2, the IC50 [5] was 281 nM.
